Reference: ChEMBL document CHEMBL4673278, “Identification and Characterization of a Peptide from the Stony Coral Heliofungia actiniformis” (J Nat Prod, 2020)
The source made the active and inactive calls. The rule behind the calls is not given here. Bridge positions count the residues as written; N and C are the ends. Peptide text beside a SMILES is read from it.

Columns and labels:
[1] = biological target: T1, Albumin (Homo sapiens, UniProt P02768); assay: Binding affinity to human serum albumin assessed as remaining parent compound at 3 mM measured up to 24 hrs by RP-HPLC analysis; format: ADME, cell-free; details: read-out: Activity
[2] = biological target: T1, Albumin; assay: Binding affinity to albumin (unknown origin) at 3 mM measured up to 24 hrs by RP-HPLC analysis; format: ADME, cell-free; details: serum, 3000 µM
[3] = system: Alteromonas macleodii; assay: Antibacterial activity against Alteromonas macleodii assessed as reduction in microbial growth at 0.024 to 0.113 mg/ml after 270 mins by microdilution assay; format: functional; details: dose 0.024-0.113 mg/ml
[4] = system: Staphylococcus aureus; assay: Antibacterial activity against methicillin-resistant Staphylococcus aureus assessed as reduction in microbial growth at 0.024 to 0.113 mg/ml after 270 mins by microdilution assay; format: functional, organism-based; details: dose 0.024-0.113 mg/ml
[5] = system: Pseudoalteromonas shioyasakiensis; assay: Antibacterial activity against Pseudoalteromonas […] assessed as reduction in microbial growth at 0.024 to 0.113 mg/ml after 270 mins by microdilution assay; format: functional; details: dose 0.024-0.113 mg/ml
[6] = system: PBMC; assay: Antiinflammatory activity against LPS-induced human PBMC cells assessed as reduction in TNF-alpha expression at 7.5 to 100 ug/ml by ELISA; format: functional, cell-based; details: dose 7.5-100 µg/ml
[7] = system: Tenacibaculum skagerrakense; assay: Antibacterial activity against Tenacibaculum skagerrakense assessed as reduction in microbial growth at 0.024 to 0.113 mg/ml after 270 mins by microdilution assay; format: functional; details: dose 0.024-0.113 mg/ml
[8] = system: Vibrio mediterranei; assay: Antibacterial activity against Vibrio shilonii assessed as reduction in microbial growth at 0.024 to 0.113 mg/ml after 270 mins by microdilution assay; format: functional; details: dose 0.024-0.113 mg/ml
[9] = Cytotoxicity against human PBMC cells assessed as reduction in cell viability at 5 to 50 ug/ml measured up to 48 hrs by CellTox Green assay; format: cell-based; details: dose 5-50 µg/ml
[10] = system: Vibrio coralliilyticus; assay: Antibacterial activity against Vibrio coralliilyticus assessed as reduction in microbial growth at 0.024 to 0.113 mg/ml after 270 mins by microdilution assay; format: functional; details: dose 0.024-0.113 mg/ml
[11] = system: Streptococcus pyogenes; assay: Antibacterial activity against Streptococcus pyogenes assessed as reduction in microbial growth at 0.024 to 0.113 mg/ml after 270 mins by microdilution assay; format: functional, organism-based; details: dose 0.024-0.113 mg/ml
[12] = system: Enterococcus faecalis; assay: Antibacterial activity against Enterococcus faecalis assessed as reduction in microbial growth at 0.024 to 0.113 mg/ml after 270 mins by microdilution assay; format: functional, organism-based; details: dose 0.024-0.113 mg/ml
[13] = system: Pseudomonas aeruginosa; assay: Antibacterial activity against Pseudomonas aeruginosa assessed as reduction in microbial growth at 0.024 to 0.113 mg/ml after 270 mins by microdilution assay; format: functional, organism-based; details: dose 0.024-0.113 mg/ml
[14] = system: Klebsiella pneumoniae; assay: Antibacterial activity against Klebsiella pneumoniae assessed as reduction in microbial growth at 0.024 to 0.113 mg/ml after 270 mins by microdilution assay; format: functional, organism-based; details: dose 0.024-0.113 mg/ml
[15] = system: Escherichia coli; assay: Antibacterial activity against Escherichia coli assessed as reduction in microbial growth at 0.024 to 0.113 mg/ml after 270 mins by microdilution assay; format: functional, organism-based; details: dose 0.024-0.113 mg/ml
[16] = system: Serratia marcescens; assay: Antibacterial activity against Serratia marcescens assessed as reduction in microbial growth at 0.024 to 0.113 mg/ml after 270 mins by microdilution assay; format: functional, organism-based; details: dose 0.024-0.113 mg/ml
[17] = system: Vibrio harveyi; assay: Antibacterial activity against Vibrio harveyi assessed as reduction in microbial growth at 0.024 to 0.113 mg/ml after 270 mins by microdilution assay; format: functional, organism-based; details: dose 0.024-0.113 mg/ml
[18] = system: Streptococcus pneumoniae; assay: Antibacterial activity against Streptococcus pneumoniae assessed as reduction in microbial growth at 0.024 to 0.113 mg/ml after 270 mins by microdilution assay; format: functional, organism-based; details: dose 0.024-0.113 mg/ml

T1 sequence (P02768 whole entry): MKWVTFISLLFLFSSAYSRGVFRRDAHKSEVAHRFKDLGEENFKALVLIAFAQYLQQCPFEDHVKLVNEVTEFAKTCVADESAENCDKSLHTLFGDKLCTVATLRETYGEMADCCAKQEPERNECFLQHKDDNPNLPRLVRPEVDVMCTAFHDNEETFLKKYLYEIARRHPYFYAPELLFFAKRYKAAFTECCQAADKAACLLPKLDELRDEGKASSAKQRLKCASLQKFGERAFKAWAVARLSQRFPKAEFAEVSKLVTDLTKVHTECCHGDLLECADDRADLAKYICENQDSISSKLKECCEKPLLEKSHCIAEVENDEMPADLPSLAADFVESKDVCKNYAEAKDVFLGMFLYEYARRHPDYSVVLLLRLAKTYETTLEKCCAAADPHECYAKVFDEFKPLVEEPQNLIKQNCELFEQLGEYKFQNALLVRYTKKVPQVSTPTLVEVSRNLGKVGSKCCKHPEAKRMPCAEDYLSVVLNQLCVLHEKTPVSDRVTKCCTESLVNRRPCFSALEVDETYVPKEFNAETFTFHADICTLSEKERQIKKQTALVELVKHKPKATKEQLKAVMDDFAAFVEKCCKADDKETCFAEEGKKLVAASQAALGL

SMILES	remaining at 24 h, 3000 µM [1]	Activity [2]	Activity [3]	Activity [4]	Activity [5]	Activity [6]	Activity [7]	Activity [8]	Activity [9]	Activity [10]	Activity [11]	Activity [12]	Activity [13]	Activity [14]	Activity [15]	Activity [16]	Activity [17]	Activity [18]
CC[C@H](C)[C@H](NC(=O)[C@@H](NC(=O)[C@@H](N)Cc1ccccc1)[C@H](C)O)C(=O)N[C@@H](Cc1ccc(O)cc1)C(=O)N1CCC[C@H]1C(=O)NCC(=O)N[C@H]1CSSC[C@@H](C(=O)O)NC(=O)[C@H](Cc2ccccc2)NC(=O)[C@H](CC(C)C)NC(=O)CNC(=O)[C@H](Cc2c[nH]cn2)NC1=O	85%																	
CC[C@H](C)[C@@H]1NC(=O)[C@H](CC(C)C)NC(=O)CNC(=O)[C@H](Cc2ccccc2)NC(=O)[C@@H]2CCCN2C(=O)[C@H]([C@@H](C)O)NC(=O)[C@H](Cc2ccc(O)cc2)NC(=O)[C@H](Cc2c[nH]cn2)NC(=O)[C@@H](NC(=O)CN)CSSC[C@@H](C(=O)N[C@@H](Cc2ccccc2)C(=O)O)NC1=O (H-GCHYTPFGLICF-OH; disulfide 2-11)	3%	Active	inactive	Active	inactive	Active	inactive	inactive	Non-Toxic	inactive	Active	inactive	inactive	inactive	inactive	inactive	inactive	inactive
